Experimental data as given in patent publication US12433876B2, “Septin inhibitors for treatment of cancers” (UNIVERSITY OF ROCHESTER, priority 2019, dated 2025).

What was measured:
septin-6 = test: Immunoblot of septin-6 expression; assay type: cell-based; settings: 48 hours
BXPC-3 cells = test: Live/Dead dye flow cytometry, BXPC-3; assay type: cell-based, human; settings: BXPC-3, 3 μM, 48 hours
Experimental: (§1) Cell Lines, Cell Culture, and Reagents. PANC-1, BXPC-3 and CAPAN-1, SKOV-3, MCF7, MDA-MD-231 cells were obtained from ATCC and maintained in DMEM, RPMI-1640 and IMDM supplemented with 10% fetal calf serum penicillin (100 units/mL), and streptomycin (100 μg/mL) at 37° C. with 5% CO2 in a humidified incubator. JIMT-1 cells were purchased from AddexBio Inc, USA (catalog number: C0006005) and maintained in 10% FBS and antibiotic supplemented DMEM. […] The reaction was monitored using thin-layer chromatography plates with DCM-MeOH or pure ethyl acetate as eluent. Spots were monitored in a UV chamber. […] ICM scores for each compound and their poses were calculated and compared with FCF. […] Cell viability of PANC-1, BXPC-3 and CAPAN-1 pancreatic cancer cells treated with UR214-9 was measured using the Cell Titre96R Aqueous One Solution Cell Proliferation Assay (Promega Corp., catalog number: G3580) following the procedure published earlier. […] The cells were analyzed by a 305 flow cytometer and relative live and dead cell population was calculated by inputting equal number of cells in both vehicle and control group.

JIMT-1 cells = test: Live/Dead dye flow cytometry, JIMT-1; assay type: cell-based; settings: JIMT-1, 3 μM, 48 hours, in vitro
Experimental: as §1

HER2 = test: Immunoblot of HER2 expression, pancreatic and breast cancer cells; assay type: cell-based

Question: With `O=C(Nc1cc(Cl)nc(Cl)c1)Nc1cccc(SC(F)(F)F)c1F` [UR214-9] as the compound, how does the “septin-6 protein expression levels (western blot)” value (septin-6; MDA-MB-231, JIMT-1 and MCF-7 cells, 10 and 30 μM) read?
Answer: does not alter the protein expression levels

Question: What about the “septin-6 expression (immunoblot)” value (septin-6; PANC-1, 1.0 and 10.0 μM) of the same compound?
Answer: unaffected

Question: And the dead cells (BXPC-3 cells)?
Answer: 29.4%

Question: What about the cell death (JIMT-1 cells) of the same compound?
Answer: increased cell death

Question: What about the HER2 expression (HER2; MDA-MB-231, JIMT-1 and MCF-7 cells, 10 and 30 μM, 24 hours) of the same compound?
Answer: reduced HER2 expression

Question: And the HER2 expression (HER2; PANC-1 (HER2+), 0.1, 1.0 and 10 μM, 72 hours)?
Answer: dose-dependent decrease in HER2 expression
